Results as given in ChEMBL document CHEMBL6103560, “MoA Studies of the TEAD P-Site Binding Ligand MSC-4106 and Its Optimization to TEAD1-Selective Amide M3686” (J Med Chem, 2025).

Assays:
NCI-H226 [1] = assay: Antiproliferative activity against YAP-dependent human NCI-H226 cells assessed as efficacy incubated for 4 days by CellTiter-Glo 2.0 cell viability assay relative to control; format: functional; conditions: time 4 day
[2] = Inhibition of TEAD(unknown origin)/YAP protein-protein interaction transfected in human SK-HEP1 cells incubated for 24 hrs by NanoLuc luciferase reporter assay; format: cell-based
NCI-H226 [3] = assay: Antiproliferative activity against YAP-dependent human NCI-H226 cells incubated for 4 days by CellTiter-Glo 2.0 cell viability assay; format: functional, cell-based; conditions: NCI-H226, 96 h

| IC50 [2] [nM] | IC50 (NCI-H226 [3]) [nM] | SMILES | Efficacy (NCI-H226 [1]) [%] |
| --- | --- | --- | --- |
| 20 | 9 | Cc1snc2c1c1cc(C(=O)NC3CC3)ccc1n2-c1ccc(C(F)(F)F)cc1 | 101 |
| 60 | 16 | Cc1snc2c1c1cc(C(=O)N[C@@H](C)CO)ccc1n2-c1ccc(C(F)(F)F)cc1 | 102 |
| 20 | 14 | Cc1snc2c1c1cc(C(=O)NCCO)ccc1n2-c1ccc(C(F)(F)F)cc1 | 103 |
| 1 | 14 | Cn1nc2c3cc(C(=O)O)ccc3n(-c3ccc(C(F)(F)F)cc3)c2n1 | 73 |
| 146 | 42 | C[C@@H](CO)NC(=O)c1ccc2c(c1)c1cn(C)nc1n2-c1ccc(C(F)(F)F)cc1 | 97 |
| 27 | 16 | C[C@H](CO)NC(=O)c1ccc2c(c1)c1nn(C)nc1n2-c1ccc(C(F)(F)F)cc1 | 89 |
| 130 | 88 | Cc1snc2c1c1cc(C(=O)N3CC[C@H](O)C3)ccc1n2-c1ccc(C(F)(F)F)cc1 | 96 |
| 39 | 35 | C[C@@H](CO)NC(=O)c1ccc2c(c1)c1nn(C)nc1n2-c1ccc(C(F)(F)F)cc1 | 93 |
| 56 | 59 | Cn1nc2c3cc(C(=O)N4CC[C@@H](O)C4)ccc3n(-c3ccc(C(F)(F)F)cc3)c2n1 | 90 |
| 29 | 94 | CNC(=O)c1ccc2c(c1)c1cn(C)nc1n2-c1ccc(C(F)(F)F)cc1 | 93 |
| 133 | 133 | Cc1snc2c1c1cc(C(=O)N3CC[C@@H](O)C3)ccc1n2-c1ccc(C(F)(F)F)cc1 | 105 |
| 61 | 57 | Cn1ccc([C@@H](CO)NC(=O)c2ccc3c(c2)c2cn(C)nc2n3-c2ccc(C(F)(F)F)cc2)n1 | 106 |
| 16 | 15 | Cn1cc2c3cc(C(=O)N[C@@H](CO)c4ccccn4)ccc3n(-c3ccc(C(F)(F)F)cc3)c2n1 | 99 |
| 22 | 18 | CNC(=O)c1ccc2c(c1)c1c(C)snc1n2-c1ccc(C(F)(F)F)cc1 | 108 |
| 22 | 54 | Cn1cc2c3cc(C(=O)NC4CC4)ccc3n(-c3ccc(C(F)(F)F)cc3)c2n1 | 99 |
| 31 | 19 | C[C@H](CO)NC(=O)c1ccc2c(c1)c1cn(C)nc1n2-c1ccc(C(F)(F)F)cc1 | 93 |
| 20 | 14 | Cc1snc2c1c1cc(C(=O)N[C@H](C)CO)ccc1n2-c1ccc(C(F)(F)F)cc1 | 104 |
| 124 | 1010 | CN(C)C(=O)c1ccc2c(c1)c1cn(C)nc1n2-c1ccc(C(F)(F)F)cc1 | 99 |
| 73 | 21 | Cc1snc2c1c1cc(C(N)=O)ccc1n2-c1ccc(C(F)(F)F)cc1 | 99 |
| 120 | 80 | Cn1ccc([C@@H](CO)NC(=O)c2ccc3c(c2)c2nn(C)nc2n3-c2ccc(C(F)(F)F)cc2)n1 | 103 |
| 573 | 191 | Cn1cc2c3cc(C(=O)N[C@H](CO)c4ccccn4)ccc3n(-c3ccc(C(F)(F)F)cc3)c2n1 | 105 |
| 40 | 19 | Cn1ccc([C@H](CO)NC(=O)c2ccc3c(c2)c2nn(C)nc2n3-c2ccc(C(F)(F)F)cc2)n1 | 98 |
| 50 | 20 | Cn1nc2c3cc(C(=O)N[C@@H](CO)c4ccccn4)ccc3n(-c3ccc(C(F)(F)F)cc3)c2n1 | 110 |
| 48 | 66 | Cn1cc2c3cc(C(N)=O)ccc3n(-c3ccc(C(F)(F)F)cc3)c2n1 | 89 |
| 13 | 31 | CCNC(=O)c1ccc2c(c1)c1cn(C)nc1n2-c1ccc(C(F)(F)F)cc1 |  |
